How the values were obtained:
[1] = Cytotoxicity against human Neural progenitor cells after 24 hrs by ATP-Lite assay; assay type: cell-based
[2] = Half life in SJL mouse infected with Zika virus PA259459 at 10 mg/kg, ip measured up to 2 hr post infection by LC-MS/MS analysis; assay type: ADME, organism-based; settings: in vivo
Zika virus [3] = test: Antiviral activity against Zika virus PA 259459 infected in SJL mouse assessed as decrease in viral RNA at 30 mg/kg dosed 5 times per day via drinking water for 5 days by RT-PCR relative to control; assay type: functional
Nonstructural protein 3 [4] = biological target: T1, Nonstructural protein 3 (Zika virus, UniProt A0A024AXB9); test: Inhibition of wild type Zika virus NS2B-NS3 protease preincubated for 30 mins followed by Pyr-RTKR-AMC substrate addition
T1 sequence (A0A024AXB9 whole entry, the tested form may be a part): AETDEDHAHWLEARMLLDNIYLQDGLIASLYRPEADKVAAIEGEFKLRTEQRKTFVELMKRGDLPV

Nonstructural protein 3 [5] = biological target: T1, Nonstructural protein 3; test: Inhibition of Zika virus NS2B (1421 to 1469 residues) - NS3 (1503 to 1688 residues) expressed in Escherichia coli BL21(DE3) cells using Dabcyl-KTSAVLQSGFRKME-Edans as substrate after 11 mins by FRET assay
Zika virus [6] = test: Antiviral activity against Zika virus MR766 infected in African green monkey Vero cells by plaque assay; assay type: functional, organism-based
[7] = Cytotoxicity against BHK21 cells after 24 to 48 hrs by CCK8 assay; assay type: cell-based, Mesocricetus auratus; settings: hamster, BHK-21 cells
NS5 [8] = biological target: T2, NS5 (Zika virus, UniProt A0A143MHK7); test: Inhibition of Zika virus MTase (4 to 278 residues) expressed in Escherichia coli T7 using GpppAC4 as substrate in presence of [3H]SAM incubated for 30 mins by liquid scintillation counter method
T2 sequence (A0A143MHK7 whole entry, the tested form may be a part): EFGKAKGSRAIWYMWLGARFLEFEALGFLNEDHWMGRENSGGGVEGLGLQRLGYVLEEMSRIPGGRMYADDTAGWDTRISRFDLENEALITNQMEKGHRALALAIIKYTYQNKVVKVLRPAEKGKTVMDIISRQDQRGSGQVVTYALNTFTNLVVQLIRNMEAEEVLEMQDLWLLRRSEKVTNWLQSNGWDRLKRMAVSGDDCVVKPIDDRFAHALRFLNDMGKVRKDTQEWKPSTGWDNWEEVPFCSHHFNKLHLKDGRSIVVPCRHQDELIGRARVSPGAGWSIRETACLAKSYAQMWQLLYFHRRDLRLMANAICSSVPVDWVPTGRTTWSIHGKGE

NS5 [9] = biological target: T2, NS5; test: Inhibition of Zika virus MTase (4 to 278 residues) expressed in Escherichia coli T7 using A27 RNA as substrate in presence of [3H]SAM incubated for 30 mins by liquid scintillation counter method
[10] = Cytotoxicity against African green monkey Vero cells incubated for 4 days by luminescence method; assay type: cell-based; settings: chlorocebus sabaeus
[11] = Cytotoxicity against HEK293 cells; assay type: cell-based; settings: human
[12] = Cytotoxicity against human SNB19 cells; assay type: cell-based; settings: SNB-19 cells
[13] = Cytotoxicity against human NSC by CellTiter-Glo assay; assay type: cell-based; settings: NSC cells
Zika virus [14] = test: Antiviral activity against Zika virus Puerto Rico/PRVABC59 infected in human A549 cells after 48 hrs by plaque reduction assay; assay type: functional, organism-based; settings: Puerto Rico/PRVABC59, A549, 48 h
dengue virus type 2 = test: Antiviral activity against Dengue virus 2 New Guinea C infected in human A549 cells after 48 hrs by plaque reduction assay; assay type: functional, organism-based; settings: A549, 48 h
West Nile virus = test: Antiviral activity against West Nile virus NY003356V2 infected in human A549 cells after 48 hrs by plaque reduction assay; assay type: functional, organism-based; settings: NY003356V2, A549, 48 h
Genome polyprotein = Genome polyprotein (dengue virus type 2, UniProt P29990); test: Inhibition of Dengue virus 2 NS2B (48 to 95 residues)-NS3 (1 to 185 residues) expressed in Escherichia coli BL21 Rosetta (DE3) incubated for 30 mins followed by Abz-RRRRSAG-nTyr substrate addition
Genome polyprotein, sequence (P29990 1346-1475 limits assumed): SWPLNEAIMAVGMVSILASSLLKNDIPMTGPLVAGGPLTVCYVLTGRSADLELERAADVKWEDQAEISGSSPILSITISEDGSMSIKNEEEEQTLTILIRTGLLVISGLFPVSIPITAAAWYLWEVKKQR
Genome polyprotein, sequence (P29990 1476-2093 limits assumed): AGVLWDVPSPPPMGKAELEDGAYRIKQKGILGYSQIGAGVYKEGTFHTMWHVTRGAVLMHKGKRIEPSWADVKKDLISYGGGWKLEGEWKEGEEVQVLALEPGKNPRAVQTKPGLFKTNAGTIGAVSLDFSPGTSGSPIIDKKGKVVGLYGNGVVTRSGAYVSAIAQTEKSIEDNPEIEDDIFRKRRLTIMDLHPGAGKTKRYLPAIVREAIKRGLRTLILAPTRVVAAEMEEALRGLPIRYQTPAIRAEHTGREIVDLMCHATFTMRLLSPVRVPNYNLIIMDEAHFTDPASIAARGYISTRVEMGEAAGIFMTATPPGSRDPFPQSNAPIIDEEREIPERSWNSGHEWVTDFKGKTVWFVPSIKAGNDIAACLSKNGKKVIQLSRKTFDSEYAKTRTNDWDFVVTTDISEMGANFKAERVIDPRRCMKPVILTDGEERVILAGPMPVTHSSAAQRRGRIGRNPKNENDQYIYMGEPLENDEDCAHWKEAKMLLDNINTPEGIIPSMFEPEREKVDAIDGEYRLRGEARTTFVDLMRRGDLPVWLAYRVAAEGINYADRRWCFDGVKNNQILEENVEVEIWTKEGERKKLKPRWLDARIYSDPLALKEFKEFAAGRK

Yellow fever virus = test: Antiviral activity against Yellow fever virus 17D V3 Vaccine infected in human A549 cells after 48 hrs by plaque reduction assay; assay type: functional, organism-based; settings: A549, 48 h
[15] = Cytotoxicity against human A549 cells after 42 hrs by WST-8 cell proliferation assay; assay type: cell-based
Nonstructural protein 3 [16] = biological target: T1, Nonstructural protein 3; test: Inhibition of Zika virus Asian/8375 NS2B (48 to 100 residues)-NS3 (14 to 185 residues) expressed in Escherichia coli BL21 (DE3) Star cells preincubated for 30 mins followed by Bz-nKRR-AMC substrate addition
[17] = Cytotoxicity against African green monkey Vero cells by MTT assay; assay type: cell-based; settings: chlorocebus sabaeus
[18] = Cytotoxicity against human Neural progenitor cells; assay type: cell-based
[19] = Cytotoxicity against African green monkey Vero cells; assay type: cell-based; settings: chlorocebus sabaeus

Q: Which results are given for `Clc1nc2n[nH]nc2nc1Cl`?
A: CC50 at 24 h [1]: > 50 µM; half-life [2]: 20 min; fold change (FC) (Zika virus [3]): 10; IC50 (Nonstructural protein 3 [4]): 0.82 µM

Q: Which IC50 (Nonstructural protein 3 [5]) does the source give for `O=c1cc(-c2ccc(O)c(O)c2)oc2cc(O)cc(O)c12` [LUTEOLIN] here?
A: 53 µM

Q: Which results are given for `O[C@@H](c1cc(C(F)(F)F)nc2c(C(F)(F)F)cccc12)[C@H]1CCCCN1` [(S,R)-MEFLOQUINE]?
A: EC50 (Zika virus [6]): 3.95 µM; CC50 [7]: 20.4 µM

Q: Which IC50 (NS5 [8]) does the source give for `Nc1cc(C(F)(F)F)ccc1NC(=O)Nc1cccc(S(=O)(=O)Nc2ccc(C(=O)O)cc2)c1` here?
A: 24 µM

Q: And the IC50 (NS5 [9])?
A: 79 µM

Q: Which CC50 at 96 h [10] does the source give for `O=C(NC(=S)Nc1ccc(N2CCN(C(=O)c3cccs3)CC2)cc1)c1sc2ccccc2c1Cl` here?
A: 19.4 µM

Q: With `CC[C@H]1CN2CCc3cc(OC)c(OC)cc3[C@@H]2C[C@@H]1C[C@H]1NCCc2cc(OC)c(OC)cc21` [EMETINE] as the molecule, how does the CC50 [11] read?
A: 0.18 µM

Q: What about the CC50 [12] of the same molecule?
A: 0.086 µM

Q: Which IC50 (Nonstructural protein 3 [5]) does the source give for `O=C(O[C@@H]1Cc2c(O)cc(O)cc2O[C@H]1c1cc(O)c(O)c(O)c1)c1cc(O)c(O)c(O)c1` [GALLOCATECHIN GALLATE] here?
A: 99 µM

Q: For `C#C[C@@]1(O)[C@H](O)[C@@H](COP(=O)(N[C@@H](C)C(=O)OC(C)C)Oc2ccccc2)O[C@H]1n1ccc(=O)[nH]c1=O` (stereo partly drawn), which CC50 [13] is on record?
A: > 50 µM

Q: Which IC50 (Nonstructural protein 3 [5]) does the source give for `C[C@@H]1O[C@@H](OC[C@H]2O[C@@H](Oc3c(-c4ccc(O)c(O)c4)oc4cc(O)cc(O)c4c3=O)[C@H](O)[C@@H](O)[C@@H]2O)[C@H](O)[C@H](O)[C@H]1O` [RUTIN] here?
A: 104 µM

Q: Which results are given for `O=C1C=C/C(=N/Nc2ccc([N+](=O)[O-])cc2Cl)C=C1C(=O)Nc1cccc(Cl)c1`?
A: EC50 (Zika virus [14]): 1 µM; EC50 (dengue virus type 2): 0.81 µM; EC50 (West Nile virus): 1.27 µM; IC50 (Genome polyprotein): 1.8 µM; EC50 (Yellow fever virus): 0.28 µM; CC50 at 42 h [15]: 48.8 µM

Q: Which results are given for `Nc1ncnc2c1ncn2[C@@H]1O[C@H](C[C@@H](N)CC[C@H](N)C(=O)O)[C@@H](O)[C@H]1O` [SINEFUNGIN]?
A: IC50 (NS5 [8]): 1.18 µM; IC50 (NS5 [9]): 1.62 µM

Q: Which results are given for `CC(C)(C)NCc1ccc(Nc2ccnc3cc(Cl)ccc23)cc1O` [GSK-369796]?
A: EC50 (Zika virus [6]): 2.57 µM; CC50 [7]: 98 µM

Q: With `O=c1c(O)c(-c2cc(O)c(O)c(O)c2)oc2cc(O)cc(O)c12` [MYRICETIN] as the molecule, how does the IC50 (Nonstructural protein 3 [16]) read?
A: 1.3 µM

Q: And the Ki (Nonstructural protein 3 [16])?
A: 0.8 µM

Q: And the IC50 (Nonstructural protein 3 [5])?
A: 22 µM

Q: For `CC(C)C[C@H]1C(=O)N2CCC[C@H]2[C@]2(O)O[C@](NC(=O)[C@@H]3C=C4c5cccc6[nH]c(Br)c(c56)C[C@H]4N(C)C3)(C(C)C)C(=O)N12` [BROMOCRIPTINE], which CC50 [17] is on record?
A: > 40 µM

Q: With `CC(C)OC(=O)[C@H](C)N[P@](=O)(OC[C@H]1O[C@@H](n2ccc(=O)[nH]c2=O)[C@](C)(F)[C@@H]1O)Oc1ccccc1` [SOFOSBUVIR] as the molecule, how does the CC50 [18] read?
A: 360 to 512 µM

Q: What about the CC50 [19] of the same molecule?
A: 360 to 512 µM

Q: Which CC50 [19] does the source give for `NC(=O)c1ncn([C@@H]2O[C@H](CO)[C@@H](O)[C@H]2O)n1` [RIBAVIRIN] here?
A: > 100 µM

Q: With `O=C(O[C@@H]1Cc2c(O)cc(O)cc2O[C@@H]1c1ccc(O)c(O)c1)c1cc(O)c(O)c(O)c1` [EPICATECHIN GALLATE] as the molecule, how does the IC50 (Nonstructural protein 3 [5]) read?
A: 89 µM

Reference: ChEMBL document CHEMBL4354808, “Drugs for the Treatment of Zika Virus Infection” (J Med Chem, 2020)
